Data on twelve molecules can be found in patent publication US11952364B2, “TRK inhibitors useful as anticancer drugs” (TYLIGAND BIOSCIENCE (SHANGHAI) LIMITED, priority 2018, dated 2024).

For orientation: IC50 means the concentration that inhibits the measured activity by half.

Test [1] deals with Ba/F3 ETV6-NTRK2 cells. The experiment in a line: Proliferation of Ba/F3 ETV6-NTRK2 cells (CellTiter-Glo). The format is cell-based. As to conditions: Mus musculus, BaF3; Table 2; 72 hours. An excerpt:
Ba/F3 ETV6-NTRK2 cell is a stable transgenic cell line constructed by KYinno Biotechnology Co., Ltd. on mouse primary B cell Ba/F3 wherein NTRK2 is highly expressed and fused with ETV6 to form ETV6-NTRK2. • [Test method]: Promega's CellTiter-Glo® Luminescent Cell Viability Assay kit was used to evaluate the inhibitory activity of the compounds on the proliferation of Ba/F3 ETV6-NTRK2C cells. • [Instrument]: Spectramax M3 multifunctional microplate reader from Molecular Devices. • [Test materials]: Ba/F3 ETV6-NTRK2 cell line (constructed by KYinno Biotechnology Co., Ltd. (Beijing)), 96-well transparent flat-bottomed black-walled cell culture plate (Corning, cat #3603), RPMI-1640 media (GE, cat #SH30027.01), fetal bovine serum FBS (Thermo Fisher, cat #10099-141), CellTiter-Glo® Luminescent Cell Viability Assay kit (Promega, cat #G7572), PBS (Solarbio, cat #P1020), DMSO (Sigma, cat #D2650). • [Experimental procedure]: When resuscitating Ba/F3 ETV6-NTRK2 cells, the freezing tube was quickly shaken in a 37° C. water bath to melt within 1 minute. The thawed cell suspension was mixed uniformly with RPMI1640 medium containing 10% FBS, centrifuged at 1000 rpm for 5 minutes, and the supernatant discarded. 5 mL of complete medium (RPMI1640 medium with 10% FBS) was taken to resuspend the cell pellets, charged into a cell culture flask with a bottom area of 25 cm^2, and incubated in a cell incubator at 37° C., 95% humidity and 5% CO2. Cells were allowed to passage when the number of cells reached about 10^6 cells/mL. For cell passage, the old cell suspension was directly pipetted evenly, 1/5 of the cell suspension was kept, 4 mL of new complete medium was added, and after pipetting evenly, the cell flask was placed in the cell incubator for further culturing. Cell plating was performed when the number of cells reached about 10^6 cells/mL again. For cell plating, 1/5 of the cell suspension was kept for further culturing as in the cell passage method, and the remaining 4/5 of the cell suspension was placed in a 15 mL centrifuge tube, detected for cell viability by Trypan blue exclusion method to ensure that cell viability was above 90%. A cell suspension with a density of 5.56×10^4 viable cells/mL was prepared with complete medium, and 90 μL of such cell suspension was added to a 96-well cell culture plate to obtain a cell density of 5000 viable cells/mL in the cell culture plate. A control group containing no cells, no compound and only complete medium (i.e, culture medium control) and a control group containing no compound but containing cells (i.e, cell control) were set. The cell plate was placed in a cell incubator overnight. The 10 mM compound stock solution in DMSO was first serially diluted with DMSO at a dilution factor of 3.16 times, to obtain 9 concentrations, and the 10th concentration was set as DMSO control without compound. Then, PBS was used to dilute the DMSO solutions of compounds of different concentrations, at a dilution factor of 100 times, so that the DMSO concentration in the compound solution of each concentration was 1%. Finally, 10 μL of each of the above solutions was added to the corresponding cell culture plate, so that the initial compound concentration was 10 μM, with the remaining concentrations being successively diluted at a dilution factor of 3.16 times, and the DMSO content in the cell culture plate was 0.1%. The cell plate was placed in a cell incubator and cultured for 72 hours. For endpoint detection, the CellTiter-Glo reagent was melted, and the cell plate was moved to room temperature to equilibrate for 30 minutes, added with 100 μL of CellTiter-Glo for each well, and shaken on an orbital shaker for 5 minutes to fully lyse the cells. The plate was kept at room temperature for 20 minutes to stabilize the luminescence signal, and the luminescence value of each well was scanned with a multi-functional microplate reader at full wavelength. • [Test sample]
On the technique in general: ATP-based viability assays read luminescence as a measure of living cells.

For test [2], the system named is MKN45 cells. The experiment in a line: Proliferation of MKN45 cells. Format: cell-based. As to conditions: Homo sapiens, MKN-45; Table 8. Here is the method:
MKN45 is a human poorly differentiated gastric cancer cell line with high MET expression. Cell proliferation experiments were performed according to literature methods (Zhang, D. et al. Bioorg. Med. Chem. 2013, 21, 6804; Riss, T. L.; Moravec, R. A.; Niles, A. L.; et al. Cell Viability Assays 2013 May 1 [Updated 2016 Jul. 1]. In: Sittampalam, G. S.; Grossman, A.; Brimacombe, K.; et al., editors. Assay Guidance Manual [Internet]. Bethesda (MD): Eli Lilly & Company and the National Center for Advancing Translational Sciences; 2004-. Available from: https://www.ncbi.nlm.nih.gov/books/NBK144065/).

The structures appear in SMILES notation.

In turn, `Cn1ncc2cc(Oc3ccc(NC(=O)c4ccc(C(F)(F)F)n(-c5ccc(F)cc5)c4=O)cc3F)c(-c3cn[nH]c3)cc21` [Example 1, N-(3-fluoro-4-(1-methyl-6-(1H-pyrazol-4-yl)-1H-indazol-5-yloxy)phenyl)-1-(4-fluorophenyl)-6-trifluoromethyl-2-oxo-1,2-dihydmpyridine-3-carboxamide monomethanesulfonate] yielded an IC50 in test [1] of 428 nM.

As to `Cn1ncc2cc(Oc3ccc(NC(=O)c4ccc(C5CC5)n(-c5ccc(F)cc5)c4=O)cc3F)c(-c3cn[nH]c3)cc21` [Example 2, N-(3-fluoro-4-(1-methyl-6-(1H-pyrazol-4-yl)-1H-indazol-5-yloxy)phenyl)-1-(4-fluorophenyl)-6-cyclopropyl-2-oxo-1,2-dihydmpyridine-3-carboxamide], in test [1], the IC50 stood at 269 nM.

In turn, `CCn1ncc2cc(Oc3ccc(NC(=O)c4ccc(C)n(-c5ccc(F)cc5)c4=O)cc3F)c(-c3cn[nH]c3)cc21` [Example 3, N-(3-fluoro-4-(1-ethyl-6-(1H-pyrazol-4-yl)-1H-indazol-5-yloxy)phenyl)-1-(4-fluorophenyl)-6-methyl-2-oxo-1,2-dihydmpyridine-3-carboxamide] showed an IC50 in test [1] of 341 nM.

Take `Cc1ccc(C(=O)Nc2ccc(Oc3cc4cnn(C(C)C)c4cc3-c3cn[nH]c3)c(F)c2)c(=O)n1-c1ccc(F)cc1` [Example 4, N-(3-fluoro-4-(1-isopropyl-6-(1H-pyrazol-4-yl)-1H-indazol-5-yloxy)phenyl)-1-(4-fluorophenyl)-6-methyl-2-oxo-1,2-dihydmpyridine-3-carboxamide]: it took 876 nM to reach half-maximal inhibition in test [1] (IC50). Compared with the last molecule, the IC50 is about 2.6-fold higher.

The molecule `CCc1ccc(C(=O)Nc2ccc(Oc3cc4cnn(C)c4cc3-c3cn[nH]c3)c(F)c2)c(=O)n1-c1ccc(F)cc1` [Example 5, N-(3-fluoro-4-(1-methyl-6-(1H-pyrazol-4-yl)-1H-indazol-5-yloxy)phenyl)-1-(4-fluorophenyl)-6-ethyl-2-oxo-1,2-dihydropyridine-3-carboxamide] returned an IC50 in test [1] of 128 nM.

Take `CC(C)c1ccc(C(=O)Nc2ccc(Oc3cc4cnn(C)c4cc3-c3cn[nH]c3)c(F)c2)c(=O)n1-c1ccc(F)cc1` [Example 6, N-(3-fluoro-4-(1-methyl-6-(1H-pyrazol-4-yl)-1H-indazol-5-yloxy)phenyl)-1-(4-fluorophenyl)-6-isopropyl-2-oxo-1,2-dihydropyridine-3-carboxamide]: the IC50 in test [1] stood at 209 nM.

In turn, `CSc1ccc(C(=O)Nc2ccc(Oc3cc4cnn(C)c4cc3-c3cn[nH]c3)c(F)c2)c(=O)n1-c1ccc(F)cc1` [Example 11, N-(3-fluoro-4-(1-methyl-6-(1H-pyrazol-4-yl)-1H-indazol-5-yloxy)phenyl)-1-(4-fluorophenyl)-6-methylthio-2-oxo-1,2-dihydropyidine-3-carboxamide] had an IC50 in test [2] of 12 nM.

`COc1ccc(C(=O)Nc2ccc(Oc3cc4cnn(C)c4cc3-c3cn[nH]c3)c(F)c2)c(=O)n1-c1ccc(F)cc1` [Example 12, N-(3-fluoro-4-(1-methyl-6-(1H-pyrazol-4-yl)-1H-indazol-5-yloxy)phenyl)-1-(4-fluorophenyl)-6-methoxy-2-oxo-1,2-dihydropyridine-3-carboxamide]: the IC50 in test [2] stood at 4 nM.

As for `CCOc1ccc(C(=O)Nc2ccc(Oc3cc4cnn(C)c4cc3-c3cn[nH]c3)c(F)c2)c(=O)n1-c1ccc(F)cc1` [Example 14, N-(3-fluoro-4-(1-methyl-6-(1H-pyrazol-4-yl)-1H-indazol-5-yloxy)phenyl)-1-(4-fluorophenyl)-6-ethoxy-2-oxo-12-dihydropyridine-3-carboxamide], the IC50 in test [2] came out at 11 nM.

`CC(C)Oc1ccc(C(=O)Nc2ccc(Oc3cc4cnn(C)c4cc3-c3cn[nH]c3)c(F)c2)c(=O)n1-c1ccc(F)cc1` [Example 16, N-(3-fluoro-4-(1-methyl-6-(1H-pyrazol-4-yl)-1H-indazol-5-yloxy)phenyl)-1-(4-fluorophenyl)-6-isopropoxy-2-oxo-1,2-dihydropyridine-3-carboxamide] showed an IC50 in test [2] of 9 nM.

On to `O=C(Nc1cnn2ccc(N3CCC[C@@H]3c3cc(F)ccc3F)nc12)N1CC[C@H](O)C1` [LOXO-101, Larotrectinib, reference compound], for which the IC50 in test [2] is over 10000 nM; in test [1] it was 69 nM.

With `Cc1ccc(C(=O)Nc2ccc(Oc3cc4cnn(C)c4cc3-c3cn[nH]c3)c(F)c2)c(=O)n1-c1ccc(F)cc1` [Merestinib, reference compound], the IC50 in test [2] was 19 nM; in test [1] it was 211 nM.
